Counter-ions that a name gives are not always drawn.
Biological target: Glycogen synthase kinase-3 beta (Homo sapiens, UniProt P49841)
Test: concentration-response blocking of human GSK3B – biochemical, luminescence, cell-free homogeneous, retest, dose response (AID 434954)

Glycogen synthase kinase-3 beta, sequence (P49841 whole entry): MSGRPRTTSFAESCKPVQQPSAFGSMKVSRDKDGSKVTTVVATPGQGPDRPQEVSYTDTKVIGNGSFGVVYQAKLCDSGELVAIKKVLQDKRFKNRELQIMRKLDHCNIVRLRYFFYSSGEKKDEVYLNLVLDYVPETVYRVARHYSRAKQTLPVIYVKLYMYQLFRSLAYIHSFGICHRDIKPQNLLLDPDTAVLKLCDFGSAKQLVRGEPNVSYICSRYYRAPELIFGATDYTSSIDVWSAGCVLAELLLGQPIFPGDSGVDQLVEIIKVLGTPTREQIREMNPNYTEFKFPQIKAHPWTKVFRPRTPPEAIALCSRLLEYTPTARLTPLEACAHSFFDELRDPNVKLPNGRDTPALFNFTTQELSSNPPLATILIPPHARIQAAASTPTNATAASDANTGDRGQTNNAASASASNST

| Structure (SMILES) | EC50 [µM] |
| --- | --- |
| COc1cc(OC)c(OC)cc1CNCC1COc2ccccc2O1 (stereo not given) [SMR000516658] | > 300 |
| CC[n+]1c(/C=C/N(C)c2ccccc2)sc2ccc(Cl)cc21 [N-[(E)-2-(5-chloro-3-ethyl-1,3-benzothiazol-3-ium-2-yl)ethenyl]-N-methylaniline;perchlorate] | 49.8 |
| O=C(O)c1cc(-c2ccc(C=NN3C(=O)C4C5C=CC(CC5)C4C3=O)o2)ccc1Cl (stereo not given) [SMR000274176] | > 300 |
| Nc1nnnn1/N=C/c1ccc(N2CCCCC2)c([N+](=O)[O-])c1 [SMR000174985] | > 300 |
| COc1ccc(C(=O)c2ccsc2N)cc1 [MLS001166080] | > 300 |
| O=c1oc(-c2cccs2)nc2sc3c(c12)CCC3 [MLS000107331] | > 300 |
| COc1ccc(Nc2oc(COc3ccccc3F)nc2C#N)cc1 | > 300 |
| Cc1cc(CNC(=O)c2cc(COc3c(F)cccc3F)on2)nn1C [MLS000734261] | > 300 |
| Cc1ccc(N(c2ncnc(N)c2[N+](=O)[O-])C2CCCCC2)cc1 [N-cyclohexyl-N-(4-methylphenyl)-5-nitro-4,6-pyrimidinediamine] | > 300 |
| O=C(Cn1cc[n+](CC(=O)c2ccc(Cl)cc2Cl)c1)c1ccc(Cl)cc1Cl [1,3-Bis-[2-(2,4-dichloro-phenyl)-2-oxo-ethyl]-3H-imidazol-1-ium] | > 300 |
| COc1ccc(Nc2nc(N)c(C(=O)c3ccc(OC)cc3)s2)cc1 [{4-amino-2-[(4-methoxyphenyl)amino]-1,3-thiazol-5-yl}(4-methoxyphenyl)methanone] | 0.313 |
| CC(=O)Nc1ncc2c(n1)CC(c1ccco1)CC2=O (stereo not given) [N-(7-Furan-2-yl-5-oxo-5,6,7,8-tetrahydro-quinazolin-2-yl)-acetamide] | > 300 |
| CCn1c(SCC(=O)Nc2ccccc2)nnc1C1CCCCC1 | > 300 |
| COc1cccc(C2c3c([nH]n(-c4ccccc4)c3=O)N=C3CCCC(=O)C32)c1 (stereo not given) [3-hydroxy-4-(3-methoxyphenyl)-2-phenyl-2,4,6,7,8,9-hexahydro-5H-pyrazolo[3,4-b]quinolin-5-one] | > 300 |
| Cc1ccccc1C(=O)Nc1ccc(O)c2c(=O)cc(-c3ccccc3Cl)oc12 [MLS000518806] | > 300 |
| CN(C)c1ccc(C(=O)NN2C(=O)c3ccccc3C2=O)cc1 [4-(dimethylamino)-N-(1,3-dioxo-2-isoindolyl)benzamide] | > 300 |
| COc1ccc(Nc2nc(NCC3CCCO3)nc(N)c2[N+](=O)[O-])cc1 (stereo not given) [N'-(4-Methoxy-phenyl)-5-nitro-N-(tetrahydro-furan-2-ylmethyl)-pyrimidine-2,4,6-triamine] | > 300 |
| c1ccc(-c2nc(NCCCn3ccnc3)c3oc4ccccc4c3n2)cc1 [N-[3-(1-imidazolyl)propyl]-2-phenyl-4-benzofuro[3,2-d]pyrimidinamine;hydrochloride] | 34.7 |
| CC(=O)Nc1ccc(Cc2nc3c([nH]2)c(=O)n(C)c(=O)n3C)cc1 [SMR000528148] | > 300 |
| COc1ccc(C=C2SC(Nc3ccccc3OC)=NC2=O)cc1 [SMR000517219] | > 300 |
| COc1cc2[nH]c(=O)n3nc(-c4ccccc4)nc3c2cc1OC [8,9-dimethoxy-2-phenyl[1,2,4]triazolo[1,5-c]quinazolin-5(6H)-one] | 5.34 |
| O=C(COc1ccccc1[N+](=O)[O-])NN=C/C=C/c1ccco1 [N-[[(E)-3-(furan-2-yl)prop-2-enylidene]amino]-2-(2-nitrophenoxy)acetamide] | > 300 |
| CC(=O)Oc1ccc2occ(C(=O)c3ccccc3)c2c1 [acetic acid (3-benzoyl-5-benzofuranyl) ester] | > 300 |
| CNc1nc(N)c([N+](=O)[O-])c(NCCO)n1 | 67.1 |

| Structure (SMILES) | EC50 [µM] |
| --- | --- |
| CCCn1nc(NC(=O)c2cccs2)c2cc3cc(OC)ccc3nc21 [N-(6-methoxy-1-propyl-3-pyrazolo[3,4-b]quinolinyl)-2-thiophenecarboxamide] | 44.5 |
| CC(C)N1CCc2c(sc(NC(=O)CN3C(=O)c4ccccc4C3=O)c2C(N)=O)C1 | > 300 |
| C=C(Cl)COc1ccc2c(CCCC)cc(=O)oc2c1 [4-butyl-7-(2-chloranylprop-2-enoxy)chromen-2-one] | > 300 |
| O=NCc1ccc(OCc2ccccc2)c(Cl)c1 [3-chloro-4-phenylmethoxybenzaldehyde oxime] | > 300 |
| COc1cc(C2c3c(n(Cc4ccccc4)c(=O)[nH]c3=O)N=C3CC(C)(C)CC(=O)C32)ccc1O (stereo not given) | > 300 |
| c1ccc2c(Nc3nc(-c4ccncc4)nc4ccccc34)cccc2c1 [N-naphthalen-1-yl-2-pyridin-4-ylquinazolin-4-amine] | > 300 |
| COc1ccc(/C=C2\Sc3ccc(C(=O)NCCN4CCCCCC4)cc3N(C)C2=O)cc1 [(2Z)-N-[2-(azepan-1-yl)ethyl]-2-[(4-methoxyphenyl)methylidene]-4-methyl-3-oxo-1,4-benzothiazine-6-carboxamide] | 43.3 |
| COc1ccc2oc3cc(C)[n+]([O-])c(-c4ccc(Br)cc4)c3c2c1 [MLS000588179] | > 300 |
| CCOC(=O)C1CCN(c2cc(C)nc3ccc(OC)cc23)CC1 [MLS000772886] | > 300 |
| Cc1cc(NC(=O)CCC(=O)N(c2cccnc2)C(C(=O)NC2CCCC2)c2ccccc2F)no1 (stereo not given) [N'-[2-(cyclopentylamino)-1-(2-fluorophenyl)-2-oxoethyl]-N-(5-methyl-1,2-oxazol-3-yl)-N'-pyridin-3-ylbutanediamide] | > 300 |
| CSc1nc2ncc3c(n2n1)CC1c2ccccc2CCN1C3=O (stereo not given) [SMR000169664] | 46.3 |
| CCn1nc(NC(=O)Cc2ccc(OC)cc2)c2cc3cc(C)ccc3nc21 | > 300 |
| O=C(COc1ccccc1[N+](=O)[O-])NN=Cc1cccs1 [SMR000185881] | > 300 |
| Cc1ccc(C(=O)COC(=O)c2ccc(O)cc2)cc1 | > 300 |
| CCOC(=O)c1cnc2ccc(C(=O)OC)cc2c1Nc1ccc(C(=O)O)cc1 [SMR000273135] | > 300 |
| CNC(=O)NC(=O)CSc1nc2ccccc2n1CCOC [2-[1-(2-methoxyethyl)benzimidazol-2-yl]sulfanyl-N-(methylcarbamoyl)ethanamide] | > 300 |
| c1ccc(-c2nnc(-c3ccncc3)nc2-c2ccccc2)cc1 | > 300 |
| COC(=O)COc1ccc2occ(C(C)=O)c2c1 | > 300 |
| COc1ccc(NC(=O)c2cccc(N3C(=O)c4cccc([N+](=O)[O-])c4C3=O)c2)cc1 [MLS001125857] | > 300 |
| CCOC(=O)c1cnc2ccc(C(=O)OC)cc2c1Nc1ccc2c(c1)OCCO2 [4-(2,3-Dihydro-benzo[1,4]dioxin-6-ylamino)-quinoline-3,6-dicarboxylic acid 3-ethyl ester 6-methyl ester] | 9.12 |
| COc1cccc(C(=O)NCC(=O)NN=C(C)C=Cc2ccccc2)c1 [MLS000723417] | > 300 |
| CN1CCc2c(sc3c2C(=O)NC(c2cccs2)N3)C1 (stereo not given) | > 300 |
| COc1ccc2occ(C(=O)c3coc4ccc(O)c(CN(C)C)c34)c2c1 [[4-[(dimethylamino)methyl]-5-oxidanyl-1-benzofuran-3-yl]-(5-methoxy-1-benzofuran-3-yl)methanone;hydrochloride] | 1.99 |
| CCOC(=O)C1C(C)=Nc2ncnn2C1/C=C/c1ccccc1 (stereo not given) [MLS000089169] | > 300 |

| Structure (SMILES) | EC50 [µM] |
| --- | --- |
| O=C(OCCCOC(=O)c1cc[n+]([O-])cc1)c1cc[n+]([O-])cc1 | > 300 |
| Cn1cc([CH+][N-]NC(=O)COc2ccccc2[N+](=O)[O-])c2ccccc21 [N-[(1-methylindol-3-yl)methylideneamino]-2-(2-nitrophenoxy)acetamide] | > 300 |
| CC(NCC1COc2ccccc2O1)C1COc2ccccc2O1 (stereo not given) | > 300 |
| COc1ccc(N2C(=O)C3CCCN3C2c2ccccc2F)cc1 (stereo not given) [MLS000117169] | > 300 |
| Cc1ncc(CN2CCCC(C(=O)Nc3ccc(-c4cccc(F)c4)cc3)C2)cn1 (stereo not given) [N-[4-(3-fluorophenyl)phenyl]-1-[(2-methylpyrimidin-5-yl)methyl]piperidine-3-carboxamide] | > 300 |
| Cc1cc(NC(=O)CSc2nc(-c3cccnc3)ccc2C#N)no1 [MLS000036936] | > 300 |
| Cc1ccnc(NC(=O)Cn2ccc([N+](=O)[O-])n2)c1 [N-(4-methylpyridin-2-yl)-2-(3-nitropyrazol-1-yl)ethanamide] | > 300 |
| COc1ccc(C2c3c(n[nH]c3C)N=C3CCCC(=O)C32)cc1OC (stereo not given) [SMR000353889] | > 300 |
| O=C(N1CCN(c2ccccc2F)CC1)C12CC3CC(CC(C3)C1)C2 [SMR000071700] | > 300 |
| COc1ccc(-c2noc(CSc3nnc(-c4ccccc4)n3C)n2)cc1 [3-(4-methoxyphenyl)-5-[(4-methyl-5-phenyl-1,2,4-triazol-3-yl)sulfanylmethyl]-1,2,4-oxadiazole] | > 300 |
| CC1CCCCN1c1ncnc2ccccc12 (stereo not given) [4-(2-Methyl-piperidin-1-yl)-quinazoline] | > 300 |
| CC1=C(C#N)C(=O)NC(=O)C1=CNc1ccc(S(=O)(=O)N(C)C)cc1 | > 300 |
| CC(C(=O)NCc1ccccc1)n1cc([N+](=O)[O-])cn1 (stereo not given) [SMR000559338] | > 300 |
| CC(CC(=O)Nc1cc(C)ccn1)=NNC(=O)C(=O)NC(C)C [N'-[[4-[(4-methylpyridin-2-yl)amino]-4-oxidanylidene-butan-2-ylidene]amino]-N-propan-2-yl-ethanediamide] | > 300 |
| CN(C)Cc1c(C(=O)NN=Cc2ccoc2)nnn1-c1nonc1N [1-(4-amino-1,2,5-oxadiazol-3-yl)-5-[(dimethylamino)methyl]-N-(3-furanylmethylideneamino)-4-triazolecarboxamide] | 2.18 |
| COCCn1c(SCC(=O)Nc2ccc(Cl)c(S(=O)(=O)N(C)C)c2)nc2ccccc21 [MLS000536225] | > 300 |
| NC(=O)c1c(NC(=O)CCCn2cnc([N+](=O)[O-])n2)sc2c1CCCC2 [2-{[4-(3-nitro-1H-1,2,4-triazol-1-yl)butanoyl]amino}-4,5,6,7-tetrahydro-1-benzothiophene-3-carboxamide] | 105 |
| CCCCC(=O)Nc1nn(CC(C)C)c2nc3ccccc3cc12 [SMR000043369] | > 300 |
| CC(C)C(=O)NC(=S)Nc1ccc(S(=O)(=O)N2CCCC2)cc1 [SMR000231524] | > 300 |
| Cc1ccc(Nc2nc(NCCCN3CCOCC3)nc(N)c2[N+](=O)[O-])cc1C [SMR000219808] | > 300 |
| O=C1N=c2cc(Cl)ccc2=C1NNc1ccc(C(=O)O)cc1 [MLS000759696] | 19.1 |
| CCCC1=Nc2ncnn2C(c2sccc2C)C1C(=O)OCC (stereo not given) [SMR000440057] | > 300 |

Reference: BindingDB's records for doi:10.7270/Q2TX3CTT (Broad Institute, 2010)
